These are literature values, as cited in patent US20080009419A1, “GENETIC MODELS FOR STRATIFICATION OF CANCER RISK” (INTERGENETICS, INC., priority 2006, published 2008).

Like-named read-outs stand apart in the source and are kept apart here.

The conditions of data set [1]: for range of peak plasma concentration: single oral dose of 20 mg tamoxifen.
For data set [2] the following is noted: following chronic dosing.
The test system of data set [3] is estrogen receptors. The following applies: preclinical data.
Data set [4] deals with incidence of breast cancer. The settings on record: large osteoporosis prevention and treatment study.
Data set [5] concerns invasive breast cancer incidence. The following applies: postmenopausal women at high risk, by mouth once a day.
In data set [6] the test system is estrogen receptors. The following applies: animal test systems.
Data set [7] concerns rat mammary carcinoma induced by dimethylbenzanthracene (DMBA). The settings on record: rats.
Setting [8] is: 10 mg tamoxifen twice daily for 3 months, patients.
The mark [9] stands for this setting: 20 mg tamoxifen once daily for 3 months.

For `CC/C(=C(\c1ccccc1)c1ccc(OCCNC)cc1)c1ccccc1` [N-desmethyl tamoxifen], the “range of steady-state plasma concentration” value in data set [1] (setting [8]) is 148 to 654 ng/mL; in data set [1] (setting [9]), 152 to 706 ng/mL. In data set [1] (human, in vivo), the “half-life suggested by time to steady state” value was “approximately 14 days”. Besides, the “range of peak plasma concentration” value in data set [1] is recorded as 10 to 20 ng/mL.

Turning to `O=C(c1ccc(OCCN2CCCCC2)cc1)c1c(-c2ccc(O)cc2)sc2cc(O)ccc12` [Raloxifene], the clearance in data set [2] was 40 to 60 L/kg per hour. Further, in the data set on estrogen receptors [3], the “estrogen antagonism in uterine and breast tissues” value is given as “estrogen antagonist”. Moreover, the “incidence of breast cancer” value in data set [4] is on record as “shown to reduce the incidence of breast cancer”. Also, the “reduction in invasive breast cancer incidence” value in data set [5] is given as 50%.

On to `CC/C(=C(\c1ccccc1)c1ccc(OCCN(C)C)cc1)c1ccccc1.O=C(O)CC(O)(CC(=O)O)C(=O)O` [Tamoxifen citrate, (Z)2-[4-(1,2-diphenyl-1-butenyl)phenoxy]-N,N-dimethylethanamine 2-hydroxy-1,2,3-propanetricarboxylate (1:1)], for which, in the data set with estrogen receptors [6], the antiestrogenic properties entry is listed as “potent antiestrogenic properties”.

As for `CC/C(=C(\c1ccccc1)c1ccc(OCCN(C)C)cc1)c1ccccc1` [Tamoxifen], the “DMBA-induced tumors in situ” value in data set [7] is “causes the regression”. For the same compound, the “range of steady-state plasma concentration” value in data set [1] (setting [8]) was 67 to 183 ng/mL; in data set [1] (setting [9]), 71 to 183 ng/mL. Moreover, in data set [1] (biphasic decline in plasma), the terminal elimination half-life was 120 to 170 h. Also, the “range of peak plasma concentration” value in data set [1] is 35 to 45 ng/mL. Also, the “reduction in invasive breast cancer incidence” value in data set [5] is 50%.
